For data set [1], the system named is gram-positive and gram-negative bacteria. As to conditions: cited from earlier work.
Data set [2] deals with dehydrogenase-1(DHP-I enzyme) present in kidney. To be noted: cited from earlier work.
The conditions of data set [3]: clinically administered; cited from earlier work.
The test system of data set [4] is Escherichia coli DC 2. Description: Test 1: In vitro antibacterial activity (MIC), Mueller Hinton Agar dilution. The class given is cell-based. As to conditions: read-out: Minimal Inhibitory Concentration (MIC). Here is the method: (§1) Test 1: In Vitro Antibacterial Activity Test
(§2) The compounds of Examples 1,2,3 and 4 according to the present invention were used as a test compound and imipenem was used as a comparative compound.
(§3) The test compounds and comparative compound were gradually diluted in Mueller Hinton Agar(MHA) medium. Test strains as listed in the following table were inoculated into the medium in an amount of 10^6 viable cells/ml and then incubated at 37° C. for 18 hours. Then, MIC value was measured and expressed in terms of μg/ml.

Data set [5] concerns Pseudomonas aeruginosa 1592E. Described as above. As to conditions: read-out: Minimal Inhibitory Concentration (MIC). The class given is cell-based. The method, then: as §1, §2, §3
Data set [6] relates to Klebsiella aerogenes 1522E. The data set is described as above. The class given is cell-based. As to conditions: read-out: Minimal Inhibitory Concentration (MIC). The method, then:
as §1, §2, §3

Data set [7] has as its system Salmonella typhimurium. The data set is described as above. The class given is cell-based. To be noted: Salmonella enterica, read-out: Minimal Inhibitory Concentration (MIC). The method, then:
as §1, §2, §3

In data set [8] the test system is Pseudomonas aeruginosa 9027. The data set is described as above. As to conditions: read-out: Minimal Inhibitory Concentration (MIC). Format: cell-based. The method, then:
as §1, §2, §3

For data set [9], the system named is Klebsiella oxytoca 1082E. The description is as above. Format: cell-based. As to conditions: read-out: Minimal Inhibitory Concentration (MIC). The method, then: as §1, §2, §3
The subject of data set [10] is Escherichia coil TEM. Described as above. As to conditions: 18 h, read-out: Minimal Inhibitory Concentration (MIC). Format: cell-based. Here is the method: as §1, §2, §3
Data set [11] has as its system Enterobacter cloacae 1321E. The data set is described as above. Format: cell-based. As to conditions: read-out: Minimal Inhibitory Concentration (MIC). The method, then:
as §1, §2, §3

The subject of data set [12] is Staphylococcus aureus SG 511. The description is as above. Format: cell-based. To be noted: read-out: Minimal Inhibitory Concentration (MIC). Here is the method:
as §1, §2, §3

Data set [13] in a line: Test 2: Stability test against kidney dehydrogenase DHP-I. To be noted: kidney dhp-i enzyme; for remaining at 5 min / remaining at 10 min / remaining at 20 min / remaining at 40 min / remaining at 80 min / remaining at 2 h: pig kidney enzyme, 10 mM phosphate buffer, 37° C., read-out: percentage of the remaining amount (stability on DHP-I enzyme); for remaining at 2 h: 120 minutes. Format: in vitro ADME, pig. The method, then:
Test 2: Stability Test Against kidney Dehydrogenase DHP-I
Each of the novel compounds of Examples 1,2,3 and 4 of the present invention and the comparative compound imipenem was dissolved in 10 mM phosphate buffer and the resulting solution was mixed with dehydrogenase enzyme solution extracted from pig kidney in a ratio of equivalent amounts. The resulting mixture was incubated at 37° C. for 2 hours, during which the decomposition degree of the compound was measured. The result thereof was given in the following Table 2 in terms of percentage of the remaining amount on the basis of the initially added amount of the compound.

The test system of data set [14] is DHP-I enzyme present in human kidney. As to conditions: cited from earlier work.
For data set [15] the following is noted: substances produced by DHP-I enzyme decomposition; cited from earlier work.
The subject of data set [16] is various bacteria including beta-lactamase producing strains. To be noted: compared with thienamycin; cited from earlier work.
In data set [17] the test system is Pseudomonas aeruginosa. To be noted: compared with thienamycin; cited from earlier work.
The mark [18] stands for this setting: DC2, Escherichia coli DC 2, 10^6 viable cells/ml, 37° C., 18 hours.
Setting [19] is: Pseudomonas aeruginosa 1592E, 10^6 viable cells/ml, 37° C., 18 hours.
Setting [20] is: Klebsiella aerogenes 1522E, 10^6 viable cells/ml, 37° C., 18 hours.
The mark [21] stands for this setting: Salmonella typhimurium, 10^6 viable cells/ml, 37° C., 18 hours.
Setting [22] is: Pseudomonas aeruginosa 9027, 10^6 viable cells/ml, 37° C., 18 hours.
Setting [23] is: Klebsiella oxytoca 1082E, 10^6 viable cells/ml, 37° C., 18 hours.
The mark [24] stands for this setting: Enterobacter cloacae 1321E, 10^6 viable cells/ml, 37° C., 18 hours.
[25] abbreviates: SG511, Staphylococcus aureus SG 511, 10^6 viable cells/ml, 37° C., 18 hours.

The source of these data is patent publication US5756765A, “2- (2-Substituted pyrrolidin-4-yl) thio-carbapenem derivatives” (Chong Kun Dang Corp., priority 1992, dated 1998).

In brackets after ≈: the same amount, converted by molar mass. Where two headings read alike, the source gives them in different places.

Regarding `C[C@@H](O)[C@H]1C(=O)N2C(C(=O)O)=C(SCCN)CC12` (stereo partly drawn) [thienamycin, [5R-[5α, 6α(R*)]]-3-[(2-aminoethyl)-thio]-6-(1-hydroxyethyl)-7-oxo-1-azabicyclo[3.2.0]-hept-2-ene-2-carboxylic acid], in [1], the “antimicrobial activity, in words” value was “broad and potent antimicrobial activity against gram-positive and gram-negative bacteria”. The “decomposition in vivo by DHP-I, in words” value in data set [2] is recorded as “can be readily decomposed in vivo by dehydrogenase-1(DHP-I enzyme) present in kidney”. In addition, the “recovery rate in urine” value in data set [3] was “extremely low”.

Turning to `C[C@@H](O)[C@H]1C(=O)N2C(C(=O)O)=C(S[C@@H]3CN[C@H](CSCCC(=O)NCC(N)=O)C3)[C@H](C)[C@H]12` [Example 4, (1R,5S,6S)-2-[(2S,4S)-2-{(2-carbamoylmethylcarbamoyl)ethylmercaptomethyl}pyrrolidin-4-yl]thio-6-[(R)-1-hydroxyethyl]-1-methyl-1-carbapen-2-em-3-carboxylic acid], the MIC in data set [4] (setting [18]) turned out to be 0.1 µg/mL (≈ 0.206 µM); in [5] (setting [19]) it was 0.78 µg/mL (≈ 1.6 µM); in data set [6] (setting [20]), 0.1 µg/mL (≈ 0.206 µM); in data set [7] (setting [21]) it was 0.2 µg/mL (≈ 0.411 µM); in [8] (setting [22]), 0.1 µg/mL (≈ 0.206 µM); in [9] (setting [23]), 0.2 µg/mL (≈ 0.411 µM). Also, the MIC was determined as 0.1 µg/mL (≈ 0.206 µM) in data set [10], 0.05 µg/mL (≈ 0.103 µM) in data set [11] (setting [24]) and 0.05 µg/mL (≈ 0.103 µM) in data set [12] (setting [25]). In addition, the amount remaining at 5 min in [13] is 100%. The fraction remaining at 10 min in data set [13] was found to be 99.8%. Moreover, the amount remaining at 20 min in [13] was 99%. The fraction remaining at 40 min in data set [13] worked out at 99.8%. For the same compound, the fraction remaining at 80 min in data set [13] worked out at 98.8%. In addition, in data set [13], the amount remaining at 2 h turned out to be 98.8%.

On to `C[C@@H](O)[C@H]1C(=O)N2C(C(=O)O)=C(SCCN=CN)C[C@H]12` [Imipenem, (5R, 6S, 8R)-3-[[2-(formimidoylamino)ethyl]thio]-6-(1-hydroxyethyl)-7-oxo-1-azabicyclo[3.2.0]hept-ene-2-carboxylic acid hydrate, reference compound], for which the “decomposition by DHP-I, in words” value in [14] is listed as “can be readily decomposed by DHP-I enzyme present in human kidney”. The “renal toxicity, in words” value in data set [15] is given as “serious renal toxicity”. In addition, the MIC was found to be 0.78 µg/mL in data set [4] (Escherichia coli, DC2, 18 h); 0.78 µg/mL in [5] (Pseudomonas aeruginosa, 1592E, 18 h); 0.78 µg/mL in [6] (Klebsiella aerogenes, 1522E, 18 h); 0.78 µg/mL in [7] (TYPHIMURIUM, 18 h); 0.78 µg/mL in [8] (Pseudomonas aeruginosa, 9027, 18 h); 0.39 µg/mL in data set [9] (Klebsiella oxytoca, 1082E, 18 h). The MIC in data set [10] amounted to 0.2 µg/mL; in data set [11] (Enterobacter cloacae, 1321E, 18 h), 0.2 µg/mL; in [12] (Staphylococcus aureus, SG511, 18 h), 0.1 µg/mL. Moreover, the share remaining at 5 min in data set [13] was determined as 99.2%. Moreover, in data set [13], the share remaining at 10 min amounted to 97.9%. For the same compound, the amount remaining at 20 min in data set [13] amounted to 94.3%. In data set [13], the share remaining at 40 min came to 87.7%. Further, in data set [13], the fraction remaining at 80 min is 77%. Besides, in data set [13], the amount remaining at 2 h is 66.6%. In addition, the metabolised at 2 h in data set [13] (pig, within about 2 hours from beginning of mixing incubation, read-out: decomposition ("was composed by about 40%")) is approximately 40%. Moreover, in [16], the “antibacterial activity relative to thienamycin, in words” value is on record as “equivalent to, or higher than, that of thienamycin”. Further, the “antibacterial activity, times stronger than that of thienamycin” value in data set [17] was 2 to 4 times.

`C[C@@H](O)[C@H]1C(=O)N2C(C(=O)O)=C(S[C@@H]3CN[C@H](CSCC(=O)NCC#N)C3)[C@H](C)[C@H]12` [Example 1, (1R,5S,6S)-2-[(2S,4S)-2-{(cyanomethylcarbamoyl)methylmercaptomethyl}pyrrolidin-4-yl]thio-6-[(R)-1-hydroxyethyl]-1-methyl-1-carbapen-2-em-3-carboxylicacid]: the MIC in data set [4] (setting [18]) was determined as 0.1 µg/mL (≈ 0.22 µM); in [5] (setting [19]) it was 0.78 µg/mL (≈ 1.72 µM); in data set [6] (setting [20]), 0.2 µg/mL (≈ 0.44 µM); in data set [7] (setting [21]) it was 0.2 µg/mL (≈ 0.44 µM); in [8] (setting [22]) it was 0.1 µg/mL (≈ 0.22 µM); in data set [9] (setting [23]), 0.2 µg/mL (≈ 0.44 µM). Further, the MIC in [10] is 0.1 µg/mL (≈ 0.22 µM); in data set [11] (setting [24]), 0.05 µg/mL (≈ 0.11 µM); in [12] (setting [25]) it was 0.05 µg/mL (≈ 0.11 µM). Besides, the amount remaining at 5 min in [13] is 99.7%. The amount remaining at 10 min in data set [13] came to 99.4%. Also, in data set [13], the share remaining at 20 min stood at 99.1%. Further, the amount remaining at 40 min in data set [13] amounted to 98.1%. Moreover, the share remaining at 80 min in [13] was determined as 97.5%. The amount remaining at 2 h in data set [13] stood at 97.2%.

Take `C[C@@H](O)[C@H]1C(=O)N2C(C(=O)O)=C(S[C@@H]3CN[C@H](CSCCC(=O)NCCO)C3)[C@H](C)[C@H]12` [Example 3, (1R,5S,6S)-2-[(2S,4S)-2-{(hydroxyethylcarbamoyl)ethylmercaptomethyl}pyrrolidin-4-yl]thio-6-[(R)-1-hydroxyethyl]-1-methyl-1-carbapen-2-em-3-carboxylicacid]: the MIC in data set [4] (setting [18]) stood at 0.1 µg/mL (≈ 0.211 µM); in [5] (setting [19]), 0.39 µg/mL (≈ 0.823 µM); in data set [6] (setting [20]), 0.1 µg/mL (≈ 0.211 µM); in data set [7] (setting [21]), 0.1 µg/mL (≈ 0.211 µM); in [8] (setting [22]), 0.39 µg/mL (≈ 0.823 µM); in [9] (setting [23]), 0.2 µg/mL (≈ 0.422 µM). Also, the MIC in data set [10], in data set [11] (setting [24]) and in data set [12] (setting [25]) was 0.05 µg/mL (≈ 0.106 µM) throughout. Moreover, the amount remaining at 5 min in [13] stood at 99.7%. Besides, the share remaining at 10 min in [13] amounted to 99.2%. Moreover, the share remaining at 20 min in [13] was 98.9%. Also, in [13], the share remaining at 40 min is 98%. The share remaining at 80 min in [13] was found to be 97.2%. The fraction remaining at 2 h in data set [13] is 97%.

For the compound `C[C@@H](O)[C@H]1C(=O)N2C(C(=O)O)=C(S[C@@H]3CN[C@H](CSCCC(=O)NCC#N)C3)[C@H](C)[C@H]12` [Example 2, (1R,5S,6S)-2-[(2S,4S)-2-{(cyanomethylcarbamoyl)ethylmercaptomethyl}pyrrolidin-4-yl]thio-6-[(R)-1-hydroxyethyl]1-methyl-1-carbapen-2-em-3-carboxylic acid], the MIC was determined as 0.1 µg/mL (≈ 0.213 µM) in [4] (setting [18]); 0.78 µg/mL (≈ 1.66 µM) in data set [5] (setting [19]); 0.1 µg/mL (≈ 0.213 µM) in [6] (setting [20]); 0.1 µg/mL (≈ 0.213 µM) in data set [7] (setting [21]); 0.78 µg/mL (≈ 1.66 µM) in data set [8] (setting [22]); 0.2 µg/mL (≈ 0.427 µM) in data set [9] (setting [23]). The MIC in data set [10], in data set [11] (setting [24]) and in data set [12] (setting [25]) was 0.05 µg/mL (≈ 0.107 µM) in each case. In data set [13], the fraction remaining at 5 min stood at 100%. For the same compound, the share remaining at 10 min in [13] was 99.4%. In data set [13], the share remaining at 20 min amounted to 98.6%. In addition, the fraction remaining at 40 min in [13] is 97.2%. Besides, the amount remaining at 80 min in data set [13] came out at 96.3%. For the same compound, the share remaining at 2 h in [13] was found to be 96.3%.
